In ChEMBL document CHEMBL3739404, “Arylsulfonamide derivatives of (aryloxy)ethylpiperidines as selective 5-HT7receptor antagonists and their psychotropic properties” (Medchemcomm, 2015):
The source made the active and inactive calls. The rule behind the calls is not given here.

What was measured:
Mus musculus [1] = test: Toxicity in albino Swiss mouse assessed as effect on spontaneous locomotor activity at 1 mg/kg, ip dosed 30 mins before test measured for 1 min 15 secs by M3 multichannel activity test; format: organism-based; conditions: in vivo
Mus musculus [2] = test: Anxiolytic-like activity in albino Swiss mouse assessed as increase in number of punished crossings at 1 mg/kg, ip dosed 30 mins before test by four plate test; format: functional, organism-based
Mus musculus [3] = test: Toxicity in albino Swiss mouse assessed as effect on spontaneous locomotor activity at 10 mg/kg, ip dosed 30 mins before test measured for 2 to 6 mins by M3 multichannel activity test; format: organism-based; conditions: in vivo
Mus musculus [4] = test: Antidepressant-like activity in albino Swiss mouse assessed as reduction in immobility time at 10 mg/kg, ip dosed 30 mins before test by forced swim test; format: functional; design: scale not given: the % may be the effect or the level left

CC1CCN(CC[C@H]2CCCN2S(=O)(=O)c2cccc(O)c2)CC1
Activity (Mus musculus [1]): Non-toxic
Activity (Mus musculus [2]): Active
Activity (Mus musculus [3]): Non-toxic
Activity (Mus musculus [4]): 33%
